We go through 5 molecules from patent US7638532B2, “3-aryloxy-8-aza-bicyclo[3.2.1]oct-6-ene derivatives and their use as monoamine neurotransmitter re-uptake inhibitors” (NeuroSearch A/S, priority 2005, dated 2009).

pIC50: −log10 of the molar value. Counter-ions that a name gives are not always drawn. Like-named read-outs stand apart in the source and are kept apart here.

One may read the melting point as the temperature, or range, at which the solid turns liquid. As a reminder, the pIC50 is the IC50 on a negative log10 scale, so that one unit is a factor of ten.

Series [1] addresses T1, reuptake of noradrenaline (NA) in synaptosomes (Rattus norvegicus, UniProt Q9WTR4).
T1 construct: in synaptosomes as described in WO 97/16451; from tissue
In words: Inhibition of noradrenaline (NA) reuptake in synaptosomes. It is filed as biochemical.

Series [2] has as its target T2, reuptake of dopamine (DA) in synaptosomes (Rattus norvegicus, UniProt P23977).
T2 construct: in synaptosomes as described in WO 97/16451; from tissue
In words: Inhibition of dopamine (DA) reuptake in synaptosomes. It is filed as biochemical.

Series [3] has as its target T3, reuptake of serotonine (5-HT) in synaptosomes (Rattus norvegicus, UniProt P31652).
T3 construct: in synaptosomes as described in WO 97/16451; from tissue
In words: Inhibition of serotonine (5-HT) reuptake in synaptosomes. It is filed as biochemical.

T1 sequence (Q9WTR4 1-597): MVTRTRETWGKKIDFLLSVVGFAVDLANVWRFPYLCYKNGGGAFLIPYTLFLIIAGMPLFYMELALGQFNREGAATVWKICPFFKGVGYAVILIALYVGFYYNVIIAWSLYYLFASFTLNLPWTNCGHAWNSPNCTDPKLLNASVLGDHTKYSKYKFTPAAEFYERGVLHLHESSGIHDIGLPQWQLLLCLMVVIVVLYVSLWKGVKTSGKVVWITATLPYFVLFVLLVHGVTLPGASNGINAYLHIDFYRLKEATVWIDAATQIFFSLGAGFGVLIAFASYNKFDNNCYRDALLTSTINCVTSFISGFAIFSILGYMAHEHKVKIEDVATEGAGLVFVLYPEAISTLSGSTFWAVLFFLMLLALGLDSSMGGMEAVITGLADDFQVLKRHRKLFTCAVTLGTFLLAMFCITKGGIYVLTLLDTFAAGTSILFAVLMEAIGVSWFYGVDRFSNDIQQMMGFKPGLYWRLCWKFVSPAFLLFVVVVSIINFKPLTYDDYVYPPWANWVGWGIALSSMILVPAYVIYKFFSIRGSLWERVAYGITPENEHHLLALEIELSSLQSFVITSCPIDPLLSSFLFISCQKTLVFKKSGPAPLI
T2 sequence (P23977 whole entry): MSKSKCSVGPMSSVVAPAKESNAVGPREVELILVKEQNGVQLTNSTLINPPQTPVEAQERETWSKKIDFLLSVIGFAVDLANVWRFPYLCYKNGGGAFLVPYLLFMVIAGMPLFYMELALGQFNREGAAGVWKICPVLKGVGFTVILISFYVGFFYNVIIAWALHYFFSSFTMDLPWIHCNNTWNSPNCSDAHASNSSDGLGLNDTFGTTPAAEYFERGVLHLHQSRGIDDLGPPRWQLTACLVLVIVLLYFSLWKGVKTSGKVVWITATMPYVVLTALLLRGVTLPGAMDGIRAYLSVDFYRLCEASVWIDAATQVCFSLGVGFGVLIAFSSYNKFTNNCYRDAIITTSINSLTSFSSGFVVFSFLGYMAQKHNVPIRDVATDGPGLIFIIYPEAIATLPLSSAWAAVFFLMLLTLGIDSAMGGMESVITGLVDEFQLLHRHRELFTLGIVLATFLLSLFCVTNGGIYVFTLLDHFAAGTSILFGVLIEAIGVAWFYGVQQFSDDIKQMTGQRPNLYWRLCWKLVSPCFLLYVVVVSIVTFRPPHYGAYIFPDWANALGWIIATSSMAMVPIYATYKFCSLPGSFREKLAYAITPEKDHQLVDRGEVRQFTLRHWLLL
T3 sequence (P31652 whole entry): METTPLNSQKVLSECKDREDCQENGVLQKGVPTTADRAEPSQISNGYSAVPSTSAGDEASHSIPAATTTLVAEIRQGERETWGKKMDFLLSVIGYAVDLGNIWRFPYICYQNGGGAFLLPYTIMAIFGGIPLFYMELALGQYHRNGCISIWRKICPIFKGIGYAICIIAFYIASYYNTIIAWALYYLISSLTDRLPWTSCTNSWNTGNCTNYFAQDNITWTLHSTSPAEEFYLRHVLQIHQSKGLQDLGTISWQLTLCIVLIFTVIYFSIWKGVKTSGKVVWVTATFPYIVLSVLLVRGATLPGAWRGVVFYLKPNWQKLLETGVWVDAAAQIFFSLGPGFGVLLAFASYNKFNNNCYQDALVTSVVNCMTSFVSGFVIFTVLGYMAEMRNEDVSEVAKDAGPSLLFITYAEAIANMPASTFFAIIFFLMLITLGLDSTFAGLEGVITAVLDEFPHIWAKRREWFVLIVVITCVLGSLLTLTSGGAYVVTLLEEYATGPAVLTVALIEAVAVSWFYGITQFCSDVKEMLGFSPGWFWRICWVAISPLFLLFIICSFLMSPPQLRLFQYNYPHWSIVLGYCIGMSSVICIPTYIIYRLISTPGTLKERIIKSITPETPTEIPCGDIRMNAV

Consider `COc1ccc2cc(O[C@@H]3C[C@H]4C=C[C@@H](C3)N4C)ccc2c1` [3rd compound of method B, exo-3-(6-Methoxy-naphthalen-2-yloxy)-8-methyl-8-aza-bicyclo[3.2.1]oct-6-ene free base], for which the melting point was 240 °C (dec.). The pIC50 in series [1] (3H-NA, synaptosomes, read-out: NA-uptake IC50) is 6.77. Besides, in series [2] (3H-DA, synaptosomes, read-out: DA-uptake IC50), the pIC50 is 6.96. In addition, the pIC50 in series [3] (3H-5-HT, synaptosomes, read-out: 5-HT-uptake IC50) is 6.32.
For `Clc1ccc(O[C@@H]2C[C@H]3C=C[C@@H](C2)N3)cc1Br` (as salt: hydrochloric acid salt) [2nd compound of method A, exo-3-(3-Bromo-4-chloro-phenoxy)-8-aza-bicyclo[3.2.1]oct-6-ene hydrochloric acid salt], the melting point fell in the range of 240 to 243 °C.
Regarding `Clc1ccc(O[C@@H]2C[C@H]3C=C[C@@H](C2)N3)cc1Cl` [1st compound of method A, exo-3-(3,4-Dichloro-phenoxy)-8-aza-bicyclo[3.2.1]oct-6-ene hydrochloric acid salt], the pIC50 in series [1] was 7.57; in series [2] it was 6.66; in series [3] it was 8.60.
On to `Clc1ccc(O[C@@H]2C[C@H]3C=C[C@@H](C2)N3)cc1Cl` (as salt: hydrochloric acid salt) [1st compound of method A, exo-3-(3,4-Dichloro-phenoxy)-8-aza-bicyclo[3.2.1]oct-6-ene hydrochloric acid salt], for which the melting point was 200 °C (dec.).
For the molecule `Clc1ccc(O[C@@H]2C[C@H]3C=C[C@@H](C2)N3)cc1Br` [2nd compound of method A, exo-3-(3-Bromo-4-chloro-phenoxy)-8-aza-bicyclo[3.2.1]oct-6-ene hydrochloric acid salt], the pIC50 in series [1] was 6.96; in series [2] it was 6.77; in series [3] it was 7.68.
